Experimental data from patent publication US20040162345A1, “Compounds with NEP/MP-inhibitory activity and uses thereof” (Solvay Pharmaceuticals GmbH, priority 2001, published 2004).
“Also recorded” adds a separate entry of the source. Where two headings read alike, the source gives them in different places. Marks after values point to notes of the source that are not given here. No end group written: not given here.

Legend:
[1] = molecular target: T1, His6-tagged IGS5 ectodomain (Homo sapiens, UniProt Q495T6); test: IGS5 enzyme inhibition assay (fluorescence-quenched big-ET-1 analog, HPLC); format: biochemical; settings: for IC50: conversion of labeled fluorescent big-ET-1 analog
T1 construct: Enzyme: IGS-5 (sol hu)(his)6; or: His6-tagged IGS5 ectodomain;; made in house; host or cells: Sf9 insect cells, recombinant baculovirus IGBV73, purified from culture supernatant
T1 sequence (Q495T6 49-779 limits assumed): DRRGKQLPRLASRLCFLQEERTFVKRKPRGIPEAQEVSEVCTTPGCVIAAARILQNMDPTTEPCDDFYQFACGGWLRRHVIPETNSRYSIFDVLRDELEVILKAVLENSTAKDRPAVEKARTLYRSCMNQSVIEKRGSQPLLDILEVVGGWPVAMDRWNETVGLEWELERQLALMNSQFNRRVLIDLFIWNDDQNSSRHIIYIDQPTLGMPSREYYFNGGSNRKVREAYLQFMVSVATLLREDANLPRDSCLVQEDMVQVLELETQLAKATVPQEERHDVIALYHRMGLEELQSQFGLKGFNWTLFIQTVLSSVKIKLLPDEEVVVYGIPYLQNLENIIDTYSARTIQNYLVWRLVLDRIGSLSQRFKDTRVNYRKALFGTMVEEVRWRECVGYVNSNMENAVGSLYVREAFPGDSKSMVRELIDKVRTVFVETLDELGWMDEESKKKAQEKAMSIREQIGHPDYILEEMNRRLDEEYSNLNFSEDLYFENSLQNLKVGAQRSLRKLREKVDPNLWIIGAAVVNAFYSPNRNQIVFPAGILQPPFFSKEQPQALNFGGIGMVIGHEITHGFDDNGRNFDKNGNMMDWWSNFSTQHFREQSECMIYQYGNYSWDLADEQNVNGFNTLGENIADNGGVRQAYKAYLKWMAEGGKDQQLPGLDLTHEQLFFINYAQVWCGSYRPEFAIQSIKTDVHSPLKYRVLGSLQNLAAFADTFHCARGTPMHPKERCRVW
Description: (§1) The enzymatic activity of IGS5 polypeptides of the invention was tested with regard to the metabolism of biologically active peptides. In particular it was tested whether these IGS5 polypeptides may act on a variety of vasoactive peptides known in the state of the art e.g. such like atrial natriuretic peptide (ANP), bradykinin, big-endothelin (big-ET-1), endothelin (ET-1), substance P and angiotensin-1. In the context of the present invention in particular it was tested whether the IGS5 ectodomain, which is a novel human metalloprotease, hydrolyzes said vasoactive peptides. For comparison the assay was also performed for a known member of the metalloprotease family which was described earlier as soluble secreted endopeptidase (SEP) by Emoto et al. (J. Biol. Chem., Vol. 274 (1999): pp. 32469-32477). Furthermore, it was tested whether the activity of IGS5 to convert a big-ET-1 analog (the so-called 17 aa big-ET-1) may be inhibited by reference compounds that are used to determine the inhibition properties with regard to enzymes having ECE and/or NEP-characteristics.
Enzyme: IGS-5 (sol hu)(his)6; or: His6-tagged IGS5 ectodomain;
stock solution: 53 μg/ml in 20 mM HEPES pH 7.2, 5% glycerol, 0.005% Tween20, 100 mM NaCl, purity >99%; storage at 4° C.
working solution: stock solution diluted with assay buffer to 10 μg/ml.
Substrate: Mca-Asp-Ile-Ala-Trp-Phe-Dpa-[…]COOH;
Fluorescence-quenched big-ET-1 analog;
Assay buffer: 100 mM Tris pH 7.0, 250 mM NaCl.
All test compounds were dissolved in DMSO at 10 mM and were further diluted with assay buffer.
A quantity of 70 μl of the assay buffer, of 10 μl enzyme working solution and of 10 μl test compound solution were mixed in an Eppendorf vial and preincubated at 37° C. for 15 minutes. Then, 10 μl substrate stock solution was added and the reaction mixture was incubated at 37° C. for 60 minutes to allow for enzymatic hydrolysis. Subsequently the enzymatic reaction was terminated by heating at 95° C. for 5 minutes. After centrifugation (Heraeus Biofuge B, 3 min) the supernatant was subjected to HPLC analysis.
In order to separate the remaining substrate from the cleavage products reversed phase HPLC technique was used with a CC 125/4 Nucleosil 300/5 C18 RP column and a CC 8/4 Nucleosil 100/5 C18 precolumn (commercially available from Macherey-Nagel, Düren, Germany). Thus, 60 μl of the reaction samples obtained in Example 7b were injected into the HPLC, and the column was eluted at a flow rate of 1 ml/min by applying the following gradient and solutions: […]
The increasing fluorescence signal of the HPLC-peak of the peptide with the unquenched Mca-fluorophor after hydrolysis was taken as the basis for any calculation.
This signal was compared for the samples with and without inhibitor and % inhibition was calculated on basis of the respective peak areas.
% inhib=100*(1−Ainhib/Acontrol)
All samples were run in duplicate and mean values were used.
(§2) Furthermore, the potency of metalloprotease inhibitor compounds and reference compounds to suppress the conversion of big-ET to ET-1 was examined as described in this example 7, using a labeled fluorescent big-ET-1 analog. The procedures applied in the enzyme assays are described above in the examples 4 with regard to IGS5, in example 5 with regard to NEP, and in example 6 with regard to ECE.

IGS5 polypeptide = molecular target: T2, IGS5 polypeptide (Homo sapiens, UniProt Q495T6); test: Hydrolysis of vasoactive peptides by IGS5 polypeptides; format: biochemical; settings: 0.5 μM substrate, 2 h, 37° C.
T2 construct: Enzyme: IGS-5 (sol hu)(his)6; or: His6-tagged IGS5 ectodomain;; made in house; host or cells: Sf9 insect cells, recombinant baculovirus IGBV73, purified from culture supernatant
T2 sequence (Q495T6 49-779 limits assumed): T1 sequence (Q495T6 49-779 limits assumed)
Description: as §1

[2] = molecular target: T3, SEP (soluble secreted endopeptidase) (Mus musculus, UniProt Q9JLI3); settings: 10 μg SEP; 0.5 μM substrate; 12 h, 37° C.; cited from earlier work
T3 sequence (Q9JLI3 63-765 limits assumed): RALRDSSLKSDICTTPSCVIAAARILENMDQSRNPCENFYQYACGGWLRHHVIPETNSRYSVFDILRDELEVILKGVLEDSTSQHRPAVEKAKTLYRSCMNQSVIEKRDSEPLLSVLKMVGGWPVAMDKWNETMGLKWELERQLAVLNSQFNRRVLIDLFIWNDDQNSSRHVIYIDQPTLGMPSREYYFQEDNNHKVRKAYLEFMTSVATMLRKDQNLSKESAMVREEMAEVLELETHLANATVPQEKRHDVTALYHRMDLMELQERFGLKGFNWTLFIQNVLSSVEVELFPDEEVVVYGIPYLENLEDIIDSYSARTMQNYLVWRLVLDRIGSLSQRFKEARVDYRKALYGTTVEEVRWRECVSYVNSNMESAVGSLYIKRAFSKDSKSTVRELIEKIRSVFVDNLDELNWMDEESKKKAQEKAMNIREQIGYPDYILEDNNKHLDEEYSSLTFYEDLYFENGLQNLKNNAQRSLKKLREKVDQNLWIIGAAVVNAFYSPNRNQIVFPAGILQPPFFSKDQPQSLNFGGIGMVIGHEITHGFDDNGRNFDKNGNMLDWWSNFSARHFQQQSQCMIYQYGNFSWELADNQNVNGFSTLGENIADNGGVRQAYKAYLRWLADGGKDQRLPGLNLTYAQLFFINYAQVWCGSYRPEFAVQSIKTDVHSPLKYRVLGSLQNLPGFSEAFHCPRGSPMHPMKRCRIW

[3] = system: patients with congestive heart failure; test: Open, baseline controlled pilot trial in patients with congestive heart failure; format: in vivo, human; settings: following compound Ia-2 administration; p<0.001
Description: To proof the concept of clinical efficacy and safety of compound Ia-2 in man, 6 clinical trials were conducted in healthy volunteers and 2 proof of concept trials were conducted in patients: One randomized, placebo-controlled double-blind trial in patients with hypertension (N=191) and one open, baseline controlled pilot trial in patients with congestive heart failure (N=29). […] In the Intent-to-treat patient population (ITT), office diastolic blood pressure versus placebo decreased by −6.9 mmHg (last value under treatment; p<0.001) and office systolic blood pressure versus placebo decreased by −9.2 mmHg (last value under treatment; p=0.003) at the highest dose investigated (200 mg bid).

[4] = molecular target: Neutral endopeptidase (E.C. 3.4.24.11) (Sus scrofa, UniProt A0A4X1SQE6); test: NEP enzyme inhibition assay (methionin-enkephalin substrate, HPLC); format: biochemical, pig
Description: Neutral endopeptidase (E.C. 3.4.24.11) was prepared from pig kidney cortex according to the method of Gee et al. (Biochem J 1985 May 15;228(1):119-26) and purified as reported by Relton et al. (Biochem J 1983 Dec. 1;215(3):519-23). For the enzyme inhibition assay 10 ng of the purified enzyme, 20 μM substrate (methionin-enkephalin) and various inhibitor concentrations were used. The assay buffer was 50 mM Tris-(hydroxymethyl)-aminomethan/HCl pH 7.4, the total assay volume was 100 μl. After a preincubation period of 5 min of enzyme and inhibitor, the substrate was added and subsequently a second incubation phase for enzyme induced substrate hydrolysis at 37° C. for 30 min was initiated. The enzymatic reaction was stopped by heating at 95° C. for 5 min. After centrifugation the supernatant was subjected to HPLC. The products of enzymatic substrate hydrolysis were separated from the native substrate by HPLC technique and the inhibitor potency calculated by comparing the peak areas of the products with the peak area of native substrate for both, the samples with and without inhibitor (control). Blanks without enzyme, controls without inhibitor, samples with inhibitor solvent instead of the inhibitor and samples with a standard inhibitor were added to each assay run.
as §2

Chain of Neutral endopeptidase (E.C. 3.4.24.11) (A0A4X1SQE6 entry or part of it): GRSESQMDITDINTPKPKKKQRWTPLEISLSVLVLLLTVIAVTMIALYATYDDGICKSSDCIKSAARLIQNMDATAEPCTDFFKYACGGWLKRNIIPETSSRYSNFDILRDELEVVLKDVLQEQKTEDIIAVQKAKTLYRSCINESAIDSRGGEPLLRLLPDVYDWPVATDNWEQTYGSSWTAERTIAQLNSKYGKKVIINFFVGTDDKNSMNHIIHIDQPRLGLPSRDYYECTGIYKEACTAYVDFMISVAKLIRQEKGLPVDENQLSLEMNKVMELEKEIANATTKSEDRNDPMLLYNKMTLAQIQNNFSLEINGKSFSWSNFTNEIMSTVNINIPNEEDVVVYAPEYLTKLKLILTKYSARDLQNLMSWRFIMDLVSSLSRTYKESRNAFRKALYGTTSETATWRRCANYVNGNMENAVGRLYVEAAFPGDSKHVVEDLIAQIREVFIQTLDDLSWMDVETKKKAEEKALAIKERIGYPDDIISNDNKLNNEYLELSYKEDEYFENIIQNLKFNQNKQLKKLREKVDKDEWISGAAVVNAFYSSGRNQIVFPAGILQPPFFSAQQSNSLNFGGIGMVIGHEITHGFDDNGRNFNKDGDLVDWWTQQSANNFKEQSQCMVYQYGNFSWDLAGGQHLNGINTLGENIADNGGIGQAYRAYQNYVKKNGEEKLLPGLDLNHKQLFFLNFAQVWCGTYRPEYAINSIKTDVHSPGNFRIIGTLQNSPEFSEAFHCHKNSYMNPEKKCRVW

% Hydrolysis by IGS5 Polypeptide (IGS5 polypeptide; 100 μg IGS5 polypeptide)	Compound	% Hydrolysis by SEP (Emoto et al.) [2] [%]	other results
	Cc1nn(-c2ccccc2)c(NC(=O)NS(=O)(=O)c2ccc(Cl)cc2)c1C#N.[Na]		inhibition of IGS5 activity (in words) ([1]; monosodium salt): no inhibition of IGS5; also recorded: do not affect the activity of IGS5
	O=C(O)CN1C(=O)[C@@H](NC(=O)C2(C[C@@H](CCc3ccccc3)C(=O)O)CCCC2)CCc2ccccc21 [compound Ia-1, (3S,2′R)-3-{1-[2′-carboxy-4′-phenylbutyl]-cyclopentane-1-carbonylamino}-2,3,4,5-tetrahydro-2-oxo-1H-1-benzazepine-1-acetic acid]		correlation between log plasma concentrations of compound Ia-1 and plasma levels of big-ET [3]: significant positive correlation
	Cc1nn(-c2ccccc2)c(NC(=O)NS(=O)(=O)c2ccc(Cl)cc2)c1C#N.[Na] [monosodium salt]		IC50 ([4]; 20 μM methionin-enkephalin, read-out: NEP IC50): > 1000 nM; IC50 [1]: > 10000 nM
41%	Mca-Asp-Ile-Ala-Trp-Phe-Dpa-Thr-Pro-Glu-His-Val-Val-Pro-Tyr-Gly-Leu-Gly-COOH [17 aa big-ET-1]		
100%	Substance P: vasoactive peptide tested as substrate	>95	
	CC(C)C[C@H](NP(=O)(O)O[C@@H]1O[C@@H](C)[C@H](O)[C@@H](O)[C@H]1O)C(=O)N[C@@H](Cc1c[nH]c2ccccc12)C(=O)O [Phosphoramidon]		IC50 [4]: 2 nM; inhibition of IGS5 activity (in words) [1]: inhibits IGS5 with high potency; IC50 [1]: 18 nM
	tert-Butyl (3S)-3-(1-benzylethylphosphonomethyl-cyclopentane-1-carbonylamino)-2,3,4,5-tetrahydro-2-oxo-1H-1-benzazepine-1-acetate [compound Ib-8]		IC50 [1]: 2.9 nM
15*** %	Angiotensin 1: vasoactive peptide tested as substrate (DRVYIHPFHL; Angiotensin-1; UniProt P01019 25-34, looked up)	>95	
5%	CC[C@H](C)[C@@H]1NC(=O)[C@H](CCCNC(=N)N)NC(=O)[C@H](CC(=O)O)NC(=O)[C@H](CCSC)NC(=O)[C@H](CCCNC(=N)N)NC(=O)CNC(=O)CNC(=O)[C@H](Cc2ccccc2)NC(=O)[C@@H](NC(=O)[C@H](CO)NC(=O)[C@H](CO)NC(=O)[C@H](CCCNC(=N)N)NC(=O)[C@H](CCCNC(=N)N)NC(=O)[C@H](CC(C)C)NC(=O)[C@@H](N)CO)CSSC[C@@H](C(=O)N[C@@H](CC(N)=O)C(=O)N[C@@H](CO)C(=O)N[C@@H](Cc2ccccc2)C(=O)N[C@@H](CCCNC(=N)N)C(=O)N[C@@H](Cc2ccc(O)cc2)C(=O)O)NC(=O)CNC(=O)[C@H](CC(C)C)NC(=O)CNC(=O)[C@H](CO)NC(=O)[C@H](CCC(N)=O)NC(=O)[C@H](C)NC(=O)CNC1=O [ANP]	>95	% Hydrolysis by IGS5 Polypeptide (IGS5 polypeptide; 500 μg IGS5 polypeptide): 80%

Compound	% Hydrolysis by IGS5 Polypeptide (IGS5 polypeptide; 100 μg IGS5 polypeptide)	% Hydrolysis by SEP (Emoto et al.) [2] [%]	other results
RPPGFSPFR [Bradykinin]	100%		% Hydrolysis by IGS5 Polypeptide (IGS5 polypeptide; 10 μg IGS5 polypeptide): 62%
CC[C@H](C)[C@H](NC(=O)[C@H](CC(=O)O)NC(=O)[C@H](CC(C)C)NC(=O)[C@H](Cc1c[nH]cn1)NC(=O)[C@@H]1CSSC[C@H](N)C(=O)N[C@@H](CO)C(=O)N[C@H]2CSSC[C@H](NC(=O)[C@H](CCC(=O)O)NC(=O)[C@H](CCCCN)NC(=O)[C@H](CC(=O)O)NC(=O)[C@H](CCSC)NC(=O)[C@H](CC(C)C)NC(=O)[C@H](CO)NC(=O)[C@H](CO)NC2=O)C(=O)N[C@@H](C(C)C)C(=O)N[C@@H](Cc2ccc(O)cc2)C(=O)N[C@@H](Cc2ccccc2)C(=O)N1)C(=O)N[C@H](C(=O)N[C@@H](Cc1c[nH]c2ccccc12)C(=O)O)[C@@H](C)CC [ET-1]	<30%	92	
